The supplement of paper PMC10307832

Tests used:
Assay in all cases: relative viability (nuclei count vs DMSO), 5 days (fraction); higher = more cells survive
Ponatinib + Foretinib = compound: Cc1ccc(C(=O)Nc2ccc(CN3CCN(C)CC3)c(C(F)(F)F)c2)cc1C#Cc1cnc2cccnn12 [Ponatinib] + COc1cc2c(Oc3ccc(NC(=O)C4(C(=O)Nc5ccc(F)cc5)CC4)cc3F)ccnc2cc1OCCCN1CCOCC1 [Foretinib] (partner 0.25 µM)
Procedure, shortened: (§1)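 Lung cancer cell lines in 1536-well plates were dosed by pin tool the day after seeding, either with one drug alone or with a fixed anchor-drug dose plus five library-drug doses (not always all listed) in √10 steps. After 5 days, cells were fixed and their nuclei stained in one step (final 0.05% Triton X-100, 1% formaldehyde, 1 ug/ml Hoechst), then counted on 4× images. Relative viability is the nuclei count in treated wells divided by that in vehicle wells. Values are medians of duplicate plates.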

Ponatinib + Decitabine = compound: Cc1ccc(C(=O)Nc2ccc(CN3CCN(C)CC3)c(C(F)(F)F)c2)cc1C#Cc1cnc2cccnn12 [Ponatinib] + Nc1ncn([C@H]2C[C@H](O)[C@@H](CO)O2)c(=O)n1 [Decitabine] (partner 2 µM)
Procedure, shortened: as §1

Ponatinib + Vorinostat = compound: Cc1ccc(C(=O)Nc2ccc(CN3CCN(C)CC3)c(C(F)(F)F)c2)cc1C#Cc1cnc2cccnn12 [Ponatinib] + O=C(CCCCCCC(=O)Nc1ccccc1)NO [Vorinostat] (partner 1 µM)
Procedure, shortened: as §1

Pazopanib + Navitoclax = compound: Cc1ccc(Nc2nccc(N(C)c3ccc4c(C)n(C)nc4c3)n2)cc1S(N)(=O)=O [Pazopanib] + CC1(C)CCC(c2ccc(Cl)cc2)=C(CN2CCN(c3ccc(C(=O)NS(=O)(=O)c4ccc(N[C@H](CCN5CCOCC5)CSc5ccccc5)c(S(=O)(=O)C(F)(F)F)c4)cc3)CC2)C1 [Navitoclax] (partner 0.5 µM)
Procedure, shortened: as §1

Cell Line	relative viability (Ponatinib + Foretinib; first compound 0.002 µM)	relative viability (Ponatinib + Foretinib; first compound 0.006325 µM)	relative viability (Ponatinib + Foretinib; first compound 0.06325 µM)	relative viability (Ponatinib + Foretinib; first compound 0.2 µM)	relative viability (Ponatinib + Decitabine; first compound 0.002 µM)	relative viability (Ponatinib + Decitabine; first compound 0.006325 µM)	relative viability (Ponatinib + Decitabine; first compound 0.06325 µM)	relative viability (Ponatinib + Decitabine; first compound 0.2 µM)	relative viability (Ponatinib + Vorinostat; first compound 0.002 µM)	relative viability (Ponatinib + Vorinostat; first compound 0.006325 µM)	relative viability (Ponatinib + Vorinostat; first compound 0.06325 µM)	relative viability (Ponatinib + Vorinostat; first compound 0.2 µM)	relative viability (Pazopanib + Navitoclax; first compound 0.01 µM)	relative viability (Pazopanib + Navitoclax; first compound 0.03162 µM)	relative viability (Pazopanib + Navitoclax; first compound 0.1 µM)	relative viability (Pazopanib + Navitoclax; first compound 0.3162 µM)	relative viability (Pazopanib + Navitoclax; first compound 1 µM)
NCI-H1975	0.911	0.955	1.03	1.01	0.386	0.425	0.413	0.437	0.669	0.71	0.688	0.579	1	1.2	1.17	1.12	1.02
NCI-H1993	0.722	0.778	0.973	0.76	0.549	0.583	0.671	0.61	0.783	1.19	0.962	0.734	0.734	0.735	0.988	1.01	0.889
NCI-H2009	1.18	1.2	1.22	1.17	0.399	0.343	0.354	0.372	0.666	0.783	0.694	0.585	1.19	1.18	1.2	1.11	0.979
NCI-H2023	0.778	0.89	0.962	0.657	0.24	0.196	0.244	0.21	0.661	0.634	0.851	0.593	0.972	1	0.98	1.01	1.01
NCI-H2085	0.989	0.836	0.879	0.832	0.541	0.58	0.613	0.565	0.768	0.877	1.02	0.825	1.18	1.22	1.26	1.15	1.31
NCI-H2087	1.12	0.864	1.01	0.868	0.186	0.294	0.338	0.264	0.635	0.549	0.366	0.662	1.03	1.04	1.1	1.01	0.8
NCI-H2126	1.12	1.29	1.34	1.07	0.587	0.585	0.667	0.545	0.784	0.777	0.988	0.789	0.798	0.779	0.848	0.817	0.881
NCI-H2170	0.953	0.898	0.966	0.927	0.508	0.481	0.467	0.431	0.679	0.808	0.843	0.781	0.519	0.586	0.752	0.542	0.631
NCI-H2347		0.818	1.38	1.01	0.663	0.571	0.614	0.605	0.496	0.554	0.643	0.504	0.722	0.805	0.836	0.842	0.858
NCI-H2405	1	1.06	1.04	0.935	0.762	0.754	0.821	0.685	0.896	0.906	1.01	0.822	0.903	0.985	1.05	1.27	1.07
NCI-H3122	0.977	0.981	1	0.943	0.457	0.545	0.472	0.411	0.936	1.07	0.994	1.05	1.09	1.05	1.05	1.08	1.13
PC-3 [JPC-3]	0.947	1.01	1.15	1.03		0.871	0.849	0.838		0.703	0.868	0.898	0.762	0.794	0.904	0.723	0.793
PC-14	0.981	1.04	1.14	0.975	0.214	0.222	0.232	0.214	0.68	0.668	0.9	0.647	1.06	1.06	1.09	0.954	0.948
RERF-LC-KJ	0.819	0.894	0.873	0.867	0.646	0.724	0.835	0.665	0.601	0.767	0.881	0.635	0.906	1.01	1.06	0.879	1.04
SK-LU-1	0.852	0.795	0.826	0.63	0.562	0.569	0.639	0.555	0.699	0.76	0.832	0.702	0.828	0.898	0.994	0.964	0.749
SK-MES-1	0.856	1.08	1.25	0.959	0.392	0.334	0.419	0.372	0.999	1.08	1.36	1.08	1.29	1.32	1.42	1.3	1.15
SW 1573	0.75	0.767	0.922	0.864	0.463	0.458	0.695	0.46	0.564	0.737	0.835	0.575	1.16	1.06	1.02	1.2	1.28
UMC-11	1.06	1.04	1.25	1.03		0.595	0.709	0.575	0.411	0.403	0.51	0.486	0.318	0.312	0.303	0.268	0.348
